Legend:
[1] = molecular target: T1, 5-hydroxytryptamine receptor 2C (Homo sapiens, UniProt P28335)
T1 sequence (P28335 whole entry): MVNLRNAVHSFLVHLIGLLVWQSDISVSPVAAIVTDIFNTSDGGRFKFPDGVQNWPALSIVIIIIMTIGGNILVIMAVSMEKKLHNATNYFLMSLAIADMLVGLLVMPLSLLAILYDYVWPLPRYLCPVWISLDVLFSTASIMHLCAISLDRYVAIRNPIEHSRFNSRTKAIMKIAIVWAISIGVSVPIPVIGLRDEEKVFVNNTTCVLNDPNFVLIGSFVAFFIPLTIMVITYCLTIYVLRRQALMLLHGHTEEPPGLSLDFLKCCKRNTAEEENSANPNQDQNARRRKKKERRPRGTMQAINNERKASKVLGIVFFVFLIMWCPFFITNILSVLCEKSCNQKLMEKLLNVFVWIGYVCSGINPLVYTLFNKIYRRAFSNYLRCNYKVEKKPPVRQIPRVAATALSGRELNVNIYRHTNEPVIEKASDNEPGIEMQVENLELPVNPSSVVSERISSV

[2] = molecular target: Sodium-dependent dopamine transporter (Homo sapiens, UniProt Q01959)
[3] = molecular target: T2, Gastrin/cholecystokinin type B receptor (Homo sapiens, UniProt P32239)
T2 sequence (P32239 whole entry): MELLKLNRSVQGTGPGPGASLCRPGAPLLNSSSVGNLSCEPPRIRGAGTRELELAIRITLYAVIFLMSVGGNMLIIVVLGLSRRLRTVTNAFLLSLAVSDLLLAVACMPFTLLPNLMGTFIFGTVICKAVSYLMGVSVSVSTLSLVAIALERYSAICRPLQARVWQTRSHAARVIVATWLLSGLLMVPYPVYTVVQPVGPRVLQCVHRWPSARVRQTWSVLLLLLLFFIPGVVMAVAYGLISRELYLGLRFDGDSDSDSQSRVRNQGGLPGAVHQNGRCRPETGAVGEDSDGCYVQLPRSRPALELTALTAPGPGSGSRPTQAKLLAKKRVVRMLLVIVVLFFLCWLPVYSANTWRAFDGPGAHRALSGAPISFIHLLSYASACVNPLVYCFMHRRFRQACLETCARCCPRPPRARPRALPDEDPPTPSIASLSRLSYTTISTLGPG

[4] = molecular target: 3',5'-cyclic-AMP phosphodiesterase 4D (Homo sapiens, UniProt Q08499); assay type: functional
[5] = molecular target: Sodium-dependent noradrenaline transporter (Homo sapiens, UniProt P23975)
[6] = molecular target: Histamine H2 receptor (Homo sapiens, UniProt P25021); assay type: functional, cell-based
[7] = molecular target: Growth hormone secretagogue receptor type 1 (Homo sapiens, UniProt Q92847)
[8] = molecular target: T3, Alpha-1A adrenergic receptor (Homo sapiens, UniProt P35348); assay type: functional, cell-based
T3 sequence (P35348 whole entry): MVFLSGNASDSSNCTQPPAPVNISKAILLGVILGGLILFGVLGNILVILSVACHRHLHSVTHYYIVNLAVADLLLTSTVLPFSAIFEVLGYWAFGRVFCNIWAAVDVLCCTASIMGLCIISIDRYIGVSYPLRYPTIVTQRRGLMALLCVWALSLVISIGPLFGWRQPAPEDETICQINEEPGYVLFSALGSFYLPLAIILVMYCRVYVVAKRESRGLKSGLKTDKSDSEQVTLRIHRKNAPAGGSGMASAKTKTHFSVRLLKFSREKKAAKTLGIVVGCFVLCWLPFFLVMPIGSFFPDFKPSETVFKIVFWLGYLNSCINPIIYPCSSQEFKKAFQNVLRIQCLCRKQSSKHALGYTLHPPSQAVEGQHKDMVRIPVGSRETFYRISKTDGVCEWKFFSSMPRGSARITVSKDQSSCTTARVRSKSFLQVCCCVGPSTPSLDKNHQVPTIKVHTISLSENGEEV

[9] = molecular target: T4, 5-hydroxytryptamine receptor 3A (Homo sapiens, UniProt P46098); assay type: functional
T4 sequence (P46098 whole entry): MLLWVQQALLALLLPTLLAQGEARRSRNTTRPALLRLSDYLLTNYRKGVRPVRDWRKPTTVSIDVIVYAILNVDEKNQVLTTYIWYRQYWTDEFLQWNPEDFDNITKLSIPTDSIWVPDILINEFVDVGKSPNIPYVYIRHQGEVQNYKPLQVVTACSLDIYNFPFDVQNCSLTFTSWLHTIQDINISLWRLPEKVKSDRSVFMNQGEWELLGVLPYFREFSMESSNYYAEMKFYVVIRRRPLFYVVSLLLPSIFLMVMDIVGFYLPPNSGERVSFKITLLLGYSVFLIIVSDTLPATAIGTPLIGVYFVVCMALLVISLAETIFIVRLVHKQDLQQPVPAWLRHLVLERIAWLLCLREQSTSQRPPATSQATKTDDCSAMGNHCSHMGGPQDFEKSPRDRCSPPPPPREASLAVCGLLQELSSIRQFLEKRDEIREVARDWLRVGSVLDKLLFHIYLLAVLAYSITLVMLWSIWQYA

[10] = molecular target: T5, B2 bradykinin receptor (Homo sapiens, UniProt P30411)
T5 sequence (P30411 whole entry): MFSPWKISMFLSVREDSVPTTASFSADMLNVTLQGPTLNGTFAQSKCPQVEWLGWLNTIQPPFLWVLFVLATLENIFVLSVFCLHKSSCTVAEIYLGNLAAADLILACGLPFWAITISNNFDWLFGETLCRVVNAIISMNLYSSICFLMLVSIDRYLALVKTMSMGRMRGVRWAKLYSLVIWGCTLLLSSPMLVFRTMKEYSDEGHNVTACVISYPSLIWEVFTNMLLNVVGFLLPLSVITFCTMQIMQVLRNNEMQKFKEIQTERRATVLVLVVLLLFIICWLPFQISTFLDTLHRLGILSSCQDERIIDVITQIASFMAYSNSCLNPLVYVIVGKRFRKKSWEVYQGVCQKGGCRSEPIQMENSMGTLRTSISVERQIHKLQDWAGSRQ
Also: assay procedure not described here.

Chain of Growth hormone secretagogue receptor type 1 (Q92847 whole entry): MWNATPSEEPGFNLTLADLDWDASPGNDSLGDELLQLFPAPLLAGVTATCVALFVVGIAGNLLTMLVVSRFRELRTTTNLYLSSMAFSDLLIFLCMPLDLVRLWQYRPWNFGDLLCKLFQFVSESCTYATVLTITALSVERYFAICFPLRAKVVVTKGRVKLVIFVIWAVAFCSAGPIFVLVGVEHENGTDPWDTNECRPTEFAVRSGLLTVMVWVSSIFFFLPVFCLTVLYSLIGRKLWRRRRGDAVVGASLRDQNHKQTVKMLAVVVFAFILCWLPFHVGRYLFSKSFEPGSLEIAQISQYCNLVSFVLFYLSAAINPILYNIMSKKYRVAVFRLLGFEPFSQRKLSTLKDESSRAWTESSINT
Chain of 3',5'-cyclic-AMP phosphodiesterase 4D (Q08499 whole entry): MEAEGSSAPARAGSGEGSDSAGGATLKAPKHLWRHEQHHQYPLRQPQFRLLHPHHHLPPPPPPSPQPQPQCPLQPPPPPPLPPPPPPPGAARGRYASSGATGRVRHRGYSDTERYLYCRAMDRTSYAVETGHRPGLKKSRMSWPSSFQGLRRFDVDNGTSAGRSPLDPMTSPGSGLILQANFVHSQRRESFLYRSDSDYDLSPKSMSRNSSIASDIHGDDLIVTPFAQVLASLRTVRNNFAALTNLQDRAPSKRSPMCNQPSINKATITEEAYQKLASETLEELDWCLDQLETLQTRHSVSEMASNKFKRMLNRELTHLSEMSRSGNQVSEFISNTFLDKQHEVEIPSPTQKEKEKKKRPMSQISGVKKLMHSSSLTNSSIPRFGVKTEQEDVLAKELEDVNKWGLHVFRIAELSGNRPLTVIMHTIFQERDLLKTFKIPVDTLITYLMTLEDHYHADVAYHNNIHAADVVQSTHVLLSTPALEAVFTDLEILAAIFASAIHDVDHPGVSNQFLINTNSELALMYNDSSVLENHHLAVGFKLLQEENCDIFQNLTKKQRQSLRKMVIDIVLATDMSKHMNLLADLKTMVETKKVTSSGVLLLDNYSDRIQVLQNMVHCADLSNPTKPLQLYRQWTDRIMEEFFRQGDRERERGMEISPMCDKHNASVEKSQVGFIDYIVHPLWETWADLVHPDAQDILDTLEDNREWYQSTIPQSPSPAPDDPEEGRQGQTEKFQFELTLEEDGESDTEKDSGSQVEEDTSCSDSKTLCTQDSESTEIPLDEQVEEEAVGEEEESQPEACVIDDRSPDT
Chain of Sodium-dependent dopamine transporter (Q01959 whole entry): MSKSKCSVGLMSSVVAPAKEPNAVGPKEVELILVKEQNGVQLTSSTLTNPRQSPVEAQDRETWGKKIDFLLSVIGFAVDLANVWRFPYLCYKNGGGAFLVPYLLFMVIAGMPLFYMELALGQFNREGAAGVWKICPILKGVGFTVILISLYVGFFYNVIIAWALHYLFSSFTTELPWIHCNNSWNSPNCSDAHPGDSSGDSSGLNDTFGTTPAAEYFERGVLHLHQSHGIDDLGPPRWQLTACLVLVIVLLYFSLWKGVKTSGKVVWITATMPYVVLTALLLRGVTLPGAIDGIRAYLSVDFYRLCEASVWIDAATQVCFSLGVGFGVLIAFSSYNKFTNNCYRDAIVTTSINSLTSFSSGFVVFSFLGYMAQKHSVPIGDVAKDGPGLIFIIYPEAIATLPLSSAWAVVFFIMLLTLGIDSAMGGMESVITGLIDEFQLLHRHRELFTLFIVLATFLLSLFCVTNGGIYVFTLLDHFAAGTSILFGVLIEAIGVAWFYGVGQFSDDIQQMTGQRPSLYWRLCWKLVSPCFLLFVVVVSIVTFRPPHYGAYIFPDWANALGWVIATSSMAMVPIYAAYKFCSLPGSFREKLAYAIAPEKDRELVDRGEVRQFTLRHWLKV
Chain of Histamine H2 receptor (P25021 whole entry): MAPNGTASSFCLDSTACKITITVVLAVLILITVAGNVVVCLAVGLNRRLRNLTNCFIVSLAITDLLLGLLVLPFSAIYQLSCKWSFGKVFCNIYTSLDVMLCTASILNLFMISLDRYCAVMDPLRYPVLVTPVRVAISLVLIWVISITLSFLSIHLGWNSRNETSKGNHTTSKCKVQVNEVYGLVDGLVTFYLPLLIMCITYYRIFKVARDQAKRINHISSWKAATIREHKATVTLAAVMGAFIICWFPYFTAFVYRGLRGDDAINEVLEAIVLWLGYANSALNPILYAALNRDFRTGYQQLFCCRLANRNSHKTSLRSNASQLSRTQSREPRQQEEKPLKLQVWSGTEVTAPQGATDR
Chain of Sodium-dependent noradrenaline transporter (P23975 whole entry): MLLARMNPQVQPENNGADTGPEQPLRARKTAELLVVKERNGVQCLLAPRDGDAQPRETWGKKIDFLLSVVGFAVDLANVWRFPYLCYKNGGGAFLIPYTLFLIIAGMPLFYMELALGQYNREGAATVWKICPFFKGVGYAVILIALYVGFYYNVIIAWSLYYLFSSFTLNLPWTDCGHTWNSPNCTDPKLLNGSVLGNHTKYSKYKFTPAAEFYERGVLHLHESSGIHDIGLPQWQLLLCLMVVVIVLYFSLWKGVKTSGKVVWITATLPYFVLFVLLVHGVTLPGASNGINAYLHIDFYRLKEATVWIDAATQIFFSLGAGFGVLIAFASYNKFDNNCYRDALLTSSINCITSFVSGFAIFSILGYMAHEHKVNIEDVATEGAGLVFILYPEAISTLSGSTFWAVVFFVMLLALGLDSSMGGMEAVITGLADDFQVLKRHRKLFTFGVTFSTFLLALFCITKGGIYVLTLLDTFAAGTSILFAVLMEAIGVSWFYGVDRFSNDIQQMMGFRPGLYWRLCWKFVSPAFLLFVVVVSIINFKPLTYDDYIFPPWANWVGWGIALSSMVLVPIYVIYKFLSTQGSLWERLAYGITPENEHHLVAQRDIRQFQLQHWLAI

SMILES	AC50 [1] [µM]	AC50 [2] [µM]	AC50 [3] [µM]	AC50 [4] [µM]	AC50 [5] [µM]	AC50 [6] [µM]	AC50 [7] [µM]	AC50 [8] [µM]	AC50 [9] [µM]	AC50 [10] [µM]
CCC(=O)OCC(=O)[C@@]1(OC(=O)CC)[C@@H](C)C[C@H]2[C@@H]3CCC4=CC(=O)C=C[C@]4(C)[C@@]3(F)[C@@H](O)C[C@@]21C [BETAMETHASONE DIPROPIONATE]	> 30	> 30	> 30	> 30	> 30	> 30	> 30	> 30	> 30	> 30
CC(C)(C)NC[C@H](O)COc1nsnc1N1CCOCC1 [TIMOLOL]	> 30	> 30	> 30	> 30	> 30	> 30	> 30	> 30	> 30	> 30
Cc1ccc2c(-c3ccccc3)nc(=O)n(C(C)C)c2c1 [PROQUAZONE]	> 30	> 30	> 30	0.81	> 30	> 30	> 30	> 30	> 30	> 10
CN1CCN(c2c(F)cc3c(=O)c(C(=O)O)cn4c3c2SCC4)CC1 [RUFLOXACIN]	> 30	> 30	> 30	> 30	–	> 30	> 30	> 30	> 30	> 30
COc1ccc(/C=C/C(=O)Nc2ccccc2C(=O)O)cc1OC	> 30	> 30	> 30	21	> 30	> 30	> 30	–	> 30	> 30
COC(=O)N[C@@H](C)CNc1nccc(-c2cn(C(C)C)nc2-c2cc(Cl)cc(NS(C)(=O)=O)c2F)n1 [ENCORAFENIB]	> 30	> 30	22.1	4.4	> 30	> 30	> 30	–	> 30	> 30
COc1ccc(C(CN(C)C)C2(O)CCCCC2)cc1 (configuration not stated) [VENLAFAXINE]	> 30	–	> 30	> 10	–	> 30	> 30	> 30	> 30	> 30
NCCCC(O)(P(=O)(O)O)P(=O)(O)O [ALENDRONIC ACID]	> 30	–	> 30	> 30	–	> 10	> 30	–	> 10	> 30
Clc1ccc(C(Cn2ccnc2)OCc2ccc(Sc3ccccc3)cc2)c(Cl)c1 (configuration not stated) [FENTICONAZOLE]	> 30	–	> 30	18	–	> 30	> 30	> 30	> 30	> 30
CC(C)CC(N(C)C)C1(c2ccc(Cl)cc2)CCC1 (configuration not stated) [SIBUTRAMINE]	> 30	0.75	> 30	> 30	–	> 10	> 30	> 30	> 30	> 30
CC(CCc1ccccc1)NC(C)C(O)c1ccc(O)cc1 (configuration not stated) [NYLIDRIN]	> 30	1.44	> 30	> 30	11	> 10	> 30	–	> 10	> 30
CC#CCn1c(N2CCC[C@@H](N)C2)nc2c1c(=O)n(Cc1nc(C)c3ccccc3n1)c(=O)n2C [LINAGLIPTIN]	> 30	> 30	> 30	> 10	> 30	> 10	5.2	–	> 30	> 30
COc1cccc2c1C(=O)c1c(O)c3c(c(O)c1C2=O)C[C@@](O)(C(C)=O)C[C@@H]3O[C@H]1C[C@H](N)[C@H](O)[C@H](C)O1 [DAUNORUBICIN]	14.1	17.7	> 30	22	10.4	> 30	5.17	–	12.8	> 10
CN1[C@@H]2CC[C@H]1C[C@@H](OC(=O)c1c[nH]c3ccccc13)C2 [TROPISETRON]	> 30	> 30	> 30	> 30	–	> 30	> 30	> 30	–	> 30
CC1(C)C(/C=C/C=C/C=C/C=C2\N(CCCCS(=O)(=O)O)c3ccc4ccccc4c3C2(C)C)=[N+](CCCCS(=O)(=O)[O-])c2ccc3ccccc3c21 [INDOCYANINE GREEN ACID FORM]	–	–	9.2	2.3	5.2	24	14	> 30	13	26
CC[N+]1(C)CCCC(OC(=O)C(O)(c2ccccc2)c2ccccc2)C1 (configuration not stated) [PIPENZOLATE]	> 30	> 30	> 30	> 30	> 30	> 30	> 30	–	> 30	> 30
C=CC1=C(C(=O)O)N2C(=O)[C@@H](NC(=O)/C(=N\OCC(=O)O)c3csc(N)n3)[C@H]2SC1 [CEFIXIME]	–	> 30	> 30	> 30	> 30	> 30	> 30	> 30	–	> 30
CCCCCCNC(=O)n1cc(F)c(=O)[nH]c1=O [CARMOFUR]	> 30	> 30	> 30	> 30	> 30	> 30	> 30	–	> 30	> 30
C=C[C@@]1(C)CC(=O)[C@]2(O)[C@@]3(C)[C@@H](O)CCC(C)(C)[C@@H]3[C@H](OC(=O)CCN(C)C)[C@H](OC(C)=O)[C@@]2(C)O1	> 30	> 30	> 30	> 30	> 30	–	> 30	8.3	> 30	> 30

— ChEMBL document CHEMBL5291721, “A preclinical secondary pharmacology resource illuminates target-adverse drug reaction associations of marketed drugs” (Nat Commun, 2023)
